Experimental data taken from patent US20140287036A1, “SOFT-GELATIN CAPSULE FORMULATION” (SUCAMPO AG, priority 2006, published 2014).

Columns and labels:
Type in all cases: physicochemical
[1] = Storage stability of compound 1 solution (240 μg/g) in a vehicle at 55° C., HPLC assay; settings: percentage of theoretical amount (240 μg/g); for concentration of compound 1, day 10: 55° C., 10 days
Experimental: Compound 1 was dissolved in a vehicle shown in table 1 below to give 240 μg/g solution (sample). The precise concentration of compound 1 in the sample was determined by means of HPLC (day 0). Then, the sample was put in a hard grass container and kept at 55° C. for 10 days, and then the precise concentration of the compound 1 in the sample was determined by means of HPLC (day 10).
The determination of the concentration of the compound in the sample was carried out as follows. About 0.2 g of the sample was mixed with exactly 2 ml of internal standard solution and then with a dissolving agent shown in Table 1 to give 5 mL of sample solution. About 12 mg of the reference standard compound 1 was weighted precisely and added with acetonitrile to give exactly 100 ml solution. Exactly 0.8 ml of the solution was obtained and added with exactly 4 ml of the internal standard solution, and then added with the dissolving agent to give 10 ml of standard solution.
The fluorescent labeling agent was added to the respective solution, stirred and stood at room temperature. Then, respective solution in an amount that theoretically gives 3.6 ng of compound 1 was loaded on the column and analyzed under the condition as follows:
Column: 5 mm×25 cm stainless steel column packed with octadecylsilane treated silica gel for HPLC (5 μm)
Mobile phase: mixture of acetonitrile HPLC grade: methanol HPLC grade: ammonium acetate (0.05 mol/L)
Detector: spectrophotofluorometer

[2] = Stability of compound 1/MCT solution (60 μg/g) kept with gelatin piece at 40° C. for 21 days; settings: MCT solution, percentage of theoretical amount (60 μg/g)
Experimental: One hundred (100) parts by weight of gelatin (type A, high bloom, SKW Biosystems #195F) and 35 parts by weight of a plasticizer shown in Table 2 were mixed in water and dried to give gelatin piece. Compound 1 was dissolved in medium chain fatty acid triglyceride (USP/NF grade) to give a liquid mixture comprising 60 μg/g of the compound. 0.5 g of the liquid mixture and 0.5 g of each gelatin piece were put together in a sealed container and kept at 40° C. for 21 days. Then, the concentration of compound 1 contained in the liquid mixture was determined in the same manner as Reference Example 1.

[3] = Stability of soft gelatin capsule of compound 1 at 40° C.; settings: MCT fill 240 μg/g; for conc. (% of Initial) 40° C. 2 mo: 2 months; for conc. (% of Initial) 40° C. 3 mo: 3 months
Experimental: Sugar alcohol solution derived from corn starch in an amount shown in Table 3 was added in an appropriate amount of water, stirred and heated. Then, gelatin 100 parts by weight was added thereto to give gelatin solution. Compound 1 was dissolved in medium chain fatty acid triglyceride (USP/NF grade) to give a fill solution containing 240 μg/g of compound 1. The gelatin solution and the liquid mixture were loaded on capsule forming and filling machine to give capsule containing the fill solution therein, and the capsule was dried to give soft gelatin capsule.
The capsule was put in a sealed container and kept at 40° C. for 3 months. The concentration of compound 1 in the fill solution contained in the capsule was determined after 1, 2 and 3 months storage in the same manner as Reference Example 1.

[4] = vehicle polyethylene glycol 400
[5] = capsule shell gelatin 100 / sugar alcohol solution 35 parts by weight
[6] = capsule shell gelatin 100 / sugar alcohol solution 45 parts by weight
[7] = capsule shell gelatin 100 / sugar alcohol solution 55 parts by weight

Structure (SMILES): CCCCC(F)(F)[C@@]1(O)CC[C@H]2[C@@H](CC(=O)[C@@H]2CCCCCCC(=O)O)O1 [compound 1, 7-[(2R,4aR,5R,7aR)-2-(1,1-difluoropentyl)-2-hydroxy-6-oxooctahydrocyclopenta[b]pyran-5-yl]heptanoic acid]
- concentration of compound 1, day 10 ([1]; vehicle glycerin): 78.0%
- concentration of compound 1, day 0 ([1]; vehicle glycerin): 92.0%
- concentration of compound 1, day 10 ([1]; vehicle hydrogenated maltose starch syrup): 24.4%
- concentration of compound 1, day 10 [1, 4]: 90.1%
- concentration of compound 1, day 0 [1, 4]: 98.2%
- concentration of compound 1, day 10 ([1]; vehicle propylene glycol): 88.6%
- concentration of compound 1, day 0 ([1]; vehicle propylene glycol): 97.8%
- concentration of compound 1, day 10 ([1]; vehicle sugar alcohol solution derived from corn starch (Polysorb 85/70/00)): 26.2%
- concentration of compound 1 after storage ([2]; gelatin piece with glycerin plasticizer (water content 23%)): 86.8%
- concentration of compound 1 after storage ([2]; gelatin piece with sugar alcohol solution derived from corn starch as plasticizer (water content 25%)): 92.0%
- conc. (% of Initial) 40° C. 1 mo ([3]; capsule shell gelatin 100 / sugar alcohol solution 35 parts by weight, 1 month): 99.9%
- conc. (% of Initial) 40° C. 2 mo [3, 5]: 100.3%
- conc. (% of Initial) 40° C. 3 mo [3, 5]: 99.2%
- conc. (% of Initial) 40° C. 2 mo [3, 6]: 100.5%
- conc. (% of Initial) 40° C. 3 mo [3, 6]: 100.0%
- conc. (% of Initial) 40° C. 2 mo [3, 7]: 99.3%
- conc. (% of Initial) 40° C. 3 mo [3, 7]: 100.0%
